Data taken from patent US10639303B2, “Alkaloids and their preparation and application as anti-HSV-1 agents” (OCEAN UNIVERSITY OF CHINA, priority 2015, dated 2020).
Read-outs that look alike come from different tables or passages of the source.

Assays:
[1] = cytotoxicity (TC50) accompanying the CPE assay; format: cell-based; details: human
[2] = system: HSV-1; test: cytopathic effects (CPE) assay, antiviral activity against HSV-1 in Hep-2 cells; format: cell-based, Herpes Simplex Virus 1; details: Human alphaherpesvirus 1; HSV-1-infected Hep-2 cells, neutral red OD 540 nm, Reed-Muench; read-out: IC50 (anti-HSV-1 activity)
Protocol: The antiviral activities against HSV-1 were evaluated by a cytopathic effects (CPE) assay. Hep-2 monolayer cells were cultured with trypsin enzyme-digesting technique and transferred to 96-well plates. The HSV-1 virus was seeded in Hep-2 cells in 96-well plates, with 2% RPMI-1640 medium, and incubated at 37° C., 5% CO2. After more than 90% lesions, the virus-infected cells were repeatedly frozen and thawed 3 times, centrifuged, quantitative packed and stored at −80° C. Each tested compound was dissolved in 10 μl DMSO to make a homogeneous solution and the solution was diluted 10 times by half-and-half dilution with 2% RPMI-1640 medium. The gradient solution was added to the infected cells incubated in 96-well plates, Ribavirin was used as positive control. Normal cells were used as blank control. Infected cells were used as negative control. All samples were incubated at 37° C., 5% CO2. Pathological changes were observed once every hour, for 24 h. After 90% lesions in negative control, 1% neutral red was added after removal of liquid in 96-well plates. The OD value was determined at 540 nm. IC50 values of tested compounds were calculated by Reed-Muench methods.

| IC50 [2] | Compound | CC50 at 24 h [1] | CC50 at 24 h ([1]; Hep-2 cells, read-out: TC50) |
| --- | --- | --- | --- |
| 0.07 µM | C=C(C)[C@@H]1CC[C@](C)(/C=C/c2ccc3c(c2O)[C@@](O)(c2ccccc2)[C@H](OC)C(=O)N3)O1 | 64.9 µM |  |
| 78 µM | NC(=O)c1ncn([C@@H]2O[C@H](CO)[C@@H](O)[C@H]2O)n1 [Ribavirin, reference compound] |  | > 10000 µM |
| 0.21 µM | CO[C@@H]1C(=O)Nc2ccc(/C=C/[C@]3(C)CC[C@H](O)[C@@H](C)C3)c(O)c2[C@@]1(O)c1ccccc1 | 36.9 µM |  |
